Results reported in patent publication US8778974B2, “Trisubstituted 1,2,4 triazoles” (Janssen Pharmaceutica NV, priority 2008, dated 2014).

Experiments:
[1] = biological target: T1, hα7-wt nAChR-expressing GH4Cl cells (Homo sapiens, UniProt P36544); test: Patch-clamp current recording (whole-cell), potentiation of choline 1 mM response, PAM type; format: cell-based; set-up: key to Pam type: Type 0 compounds minimally enhance the effect size of the current elicited by 1 mM choline.; Type 1 compounds enhance the effect size of the current elicited by 1 mM choline but minimally alter the kinetics of the receptor.; Type 2 compounds enhance the effect size of the current elicited by 1 mM choline while reducing the rate and/or the extent of desensitization.; Type 3 compounds enhance the effect size of the current elicited by 1 mM choline. When tested at higher concentrations up to 10 μM they completely inhibit desensitization, in particular a 1 mM choline application of 250 milliseconds.; Type 4 compounds allow for an initial desensitization of the receptor followed by a re-opening of the receptor during agonist application; details: for EC50: according to Ex. D.2, "<5" = no top plateau reached at maximal concentration, read-out: Potency (pEC50) (converted); for Pam type: patch-clamp current recording, 1 mM choline
T1 construct: expressed in transfected cells
Protocol: The compounds of the present invention are classified as type 1-4, based on qualitative kinetic properties, as determined by whole-cell voltage-clamp recordings. This classification is based on the effect of an α7 PAM compound, as described hereinbefore, on the signal elicited by an agonist application. In particular, said agonist is choline at a concentration of 1 mM. In a preferred experimental setting, said α7 PAM compound and choline are simultaneously applied to the cell, as described hereinafter. Desensitization is defined as the closure of the receptor upon activation during the application of the agonist in whole-cell voltage-clamp electrophysiology measurements seen as the reduction of the […] current after initial activation by the agonist.
The definition of the PAM types 1-4 is described hereinafter: • Type 0 compounds minimally enhance the effect size of the current elicited by 1 mM choline. • Type 1 compounds enhance the effect size of the current elicited by 1 mM choline but minimally alter the kinetics of the receptor. In particular, the rate and the extent of desensitization, elicited by the agonist, is not affected. The compound-modulated response to 1 mM choline, therefore, is a close to linear scaling of the 1 mM choline response in absence of the α7 PAM compound. • Type 2 compounds enhance the effect size of the current elicited by 1 mM choline while reducing the rate and/or the extent of desensitization. • Type 3 compounds enhance the effect size of the current elicited by 1 mM choline. […] At low-potency concentrations of the α7 PAM compound, the agonist-induced activation, which is followed by desensitization, can still be separated from the compound-induced re-opening as an initial inward current-maximum. At higher potency concentrations of the α7 PAM compound, the re-opening occurs faster than the closure due to desensitization so that the initial current-maximum disappears.
Patch-clamp Current Recording
Patch-clamp recording from mammalian cells has provided a powerful means of assessing the function of membrane-bound proteins thought to be subunits of ligand-gated ion channels. Activation of such proteins by endogenous or exogenous ligands cause opening of a pore associated with the receptor through which ions flow down their electrochemical gradient. In the case of the hα7-wt nAChR-expressing GH4Cl recombinant cell line the preferential permeability to calcium of this receptor means that calcium flows into the cell upon activation by ACh, choline and other nicotinic ligands giving rise to a calcium current. Since this receptor rapidly desensitizes in the presence of agonist it is important an application system is used which is capable of very rapid switching of solutions (<100 ms) to prevent partial or full desensitisation of receptor responses coincident with the time of agonist application. Consequently, a second convenient technique to assess the enhancement of nicotinic efficacy is patch-clamp recording from hα7-wt nAChR-expressing GH4Cl cells coupled with a rapid-application system.
• a) Assay buffers • The external recording solution consisted of 152 mM NaCl, 5 mM KCl, 1 mM MgCl2, 1 mM Calcium, 10 mM HEPES; pH 7.3. The internal recording solution consisted of 140 mM CsCl, 10 mM HEPES, 10 mM EGTA, 1 mM MgCl2, pH 7.3. • b) Patch-clamp recording was carried out using a Patch-clamp amplifier (Multiclamp 700A, Axon Instruments, Calif., USA). hα7-wt nAChR-expressing GH4Cl cells were patch-clamp in the whole cell configuration (Hamill et al, 1981) with a borosilicate glass electrode of 1.5-3 MΩ tip resistance when filled with the internal recording solution. Recordings were made on cells with membrane resistance >500 MΩ and more preferably 1GΩ and series resistance <15 MΩ with at least 60% series resistance compensation. […]

T1 sequence (P36544 23-502): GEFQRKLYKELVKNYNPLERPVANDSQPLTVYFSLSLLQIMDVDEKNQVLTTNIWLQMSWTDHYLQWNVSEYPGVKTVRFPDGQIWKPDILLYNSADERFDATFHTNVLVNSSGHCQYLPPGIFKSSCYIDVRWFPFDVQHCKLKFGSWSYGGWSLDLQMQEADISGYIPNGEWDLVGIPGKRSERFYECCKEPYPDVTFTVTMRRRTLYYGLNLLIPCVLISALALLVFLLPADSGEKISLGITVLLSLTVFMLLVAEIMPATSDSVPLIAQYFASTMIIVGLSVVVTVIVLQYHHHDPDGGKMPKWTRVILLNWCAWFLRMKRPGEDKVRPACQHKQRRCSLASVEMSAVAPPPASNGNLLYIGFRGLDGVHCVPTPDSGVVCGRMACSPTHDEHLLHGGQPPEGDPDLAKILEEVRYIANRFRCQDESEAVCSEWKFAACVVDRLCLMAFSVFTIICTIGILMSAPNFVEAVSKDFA

Compound: Cc1cc(-n2nc(Nc3ccc(F)c(F)c3F)nc2CC(=O)NC2CC2)cc(C)n1 [E211]
- EC50 [1]: 372 nM
- Pam type [1]: 2
- melting point: 237.3 °C

Compound: Cc1cc(-n2nc(Nc3ccc(F)c(F)c3)nc2CC(=O)NCC2CC2)cc(C)n1 [E185]
- EC50 [1]: 468 nM
- Pam type [1]: 2
- melting point: 278.7 °C

Compound: CNC(=O)Cc1nc(Nc2ccc(F)c(C(F)(F)F)c2)nn1-c1ccnc(C)c1 [E35]
- EC50 [1]: 1170 nM
- Pam type [1]: 3
- melting point: 272.9 °C

Compound: COc1ncccc1-n1nc(Nc2cccc(OC(F)(F)F)c2)nc1CCC(=O)N(C)C [E4, 1-(2-Methoxy-3-pyridinyl)-N,N-dimethyl-3-[[3-(trifluoromethoxy)phenyl]amino]-1H-1,2,4-triazole-5-propanamide]
- EC50 [1]: 3800 nM
- melting point: 166.7 °C

Compound: COc1cccc(-n2nc(Nc3cccc(OC(F)(F)F)c3)nc2CCC(=O)N(C)C)c1 [E60]
- EC50 [1]: 282 nM
- Pam type [1]: 0
- melting point: 133.5 °C

Compound: CN(C)C(=O)CCc1nc(Nc2ccc(F)c(F)c2)nn1-c1ccc(Cl)cc1 [E59]
- EC50 [1]: 245 nM
- Pam type [1]: 4
- melting point: 145.1 °C

Compound: Cc1cc(-n2nc(Nc3ccc4c(c3)OC(F)(F)O4)nc2CC(=O)NC2CC2)cc(C)n1 [E180, N-cyclopropyl-3-[(2,2-difluoro-1,3-benzodioxol-5-yl)amino]-1-(2,6-dimethyl-4-pyridinyl)-1H-1,2,4-triazole-5-acetamide]
- EC50 [1]: 302 nM
- Pam type [1]: 2
- melting point: 292.6 °C

Compound: CCNC(=O)Cc1nc(Nc2ccc(F)c(F)c2F)nn1-c1cc(C)nc(C)c1 [E210]
- EC50 [1]: 417 nM
- Pam type [1]: 2
- melting point: 241.5 °C

Compound: CC[C@H](O)Cc1nc(Nc2ccc(F)c(F)c2)nn1-c1ccc(C)nc1 [E140]
- EC50 [1]: 1620 nM
- Pam type [1]: 2
- melting point: 127.5 °C

Compound: CC[C@H](O)Cc1nc(Nc2cc(OC)cc(C(F)(F)F)c2)nn1-c1ccnc(C)c1 [E137, (alphaS)-alpha-Ethyl-3-[[3-methoxy-5-(trifluoromethyl)phenyl]amino]-1-(2-methyl-4-pyridinyl)-1H-1,2,4-triazole-5-ethanol]
- EC50 [1]: 105 nM
- Pam type [1]: 4
- melting point: 174.1 °C

Compound: COc1cc(Nc2nc(C[C@H](C)O)n(-c3ccc(C)nc3)n2)cc(C(F)(F)F)c1 [E143]
- EC50 [1]: 912 nM
- Pam type [1]: 4
- melting point: 137.5 °C

Compound: COc1cc(Nc2nc(C[C@H](C)O)n(-c3ccnc(C)c3)n2)cc(C(F)(F)F)c1 [E135]
- EC50 [1]: 550 nM
- Pam type [1]: 4
- melting point: 196.3 °C

Compound: C[C@H](O)Cc1nc(Nc2ccc(F)c(C(F)(F)F)c2)nn1-c1ccncc1Cl [E25]
- EC50 [1]: 4790 nM
- Pam type [1]: 2
- melting point: 150.3 °C

Compound: COc1ccc(-n2nc(Nc3cc(OC)cc(C(F)(F)F)c3)nc2C[C@H](C)O)cc1 [E146]
- EC50 [1]: ~363 nM
- melting point: 135.4 °C

Compound: Cc1cc(-n2nc(Nc3ccc(F)c(F)c3)nc2CC(=O)NC2CC2)cc(C)n1 [E168]
- EC50 [1]: 513 nM
- Pam type [1]: 2
- melting point: 279.3 °C

Compound: CC[C@H](O)Cc1nc(Nc2ccc(F)c(F)c2)nn1-c1ccnc(C)c1 [E30]
- EC50 [1]: 676 nM
- Pam type [1]: 2
- melting point: 171.1 °C

Compound: Cc1cc(-n2nc(Nc3ccc4c(c3)OC(F)(F)O4)nc2CC(=O)NC2CC2)c(C)cn1 [E160]
- EC50 [1]: 2140 nM
- Pam type [1]: 2
- melting point: 248.3 °C

Compound: CC[C@H](O)Cc1nc(Nc2cccc(Cl)c2F)nn1-c1ccnc(C)c1 [E173]
- EC50 [1]: 407 nM
- Pam type [1]: 2
- melting point: 127.9 °C

Compound: CC[C@H](O)Cc1nc(Nc2cc(F)c(F)c(F)c2)nn1-c1ccnc(C)c1 [E187, (alphaS)-alpha-ethyl-1-(2-methyl-4-pyridinyl)-3-[(3,4,5-trifluorophenyl)amino]-1H-1,2,4-triazole-5-ethanol]
- EC50 [1]: 224 nM
- Pam type [1]: 2
- melting point: 177.4 °C

Compound: CN(C)C(=O)CCc1nc(Nc2ccc3c(c2)OC(F)(F)O3)nn1-c1cccnc1Cl [E118]
- EC50 [1]: 692 nM
- melting point: 195.8 °C

Compound: CCc1cc(-n2nc(Nc3ccc(F)c(F)c3)nc2C[C@@H](O)CC)ccn1 [E138]
- EC50 [1]: 295 nM
- Pam type [1]: 2
- melting point: 169.4 °C

Compound: CC[C@H](O)Cc1nc(Nc2cccc(Cl)c2)nn1-c1ccnc(C)c1 [E139]
- EC50 [1]: 324 nM
- Pam type [1]: 2
- melting point: 126.7 °C

Compound: CC[C@H](O)Cc1nc(Nc2ccc(F)c(F)c2)nn1-c1ccc(OC)cc1 [E29]
- EC50 [1]: 1150 nM
- Pam type [1]: 1
- melting point: 117.6 °C

Compound: CCNC(=O)Cc1nc(Nc2ccc3c(c2)OC(F)(F)O3)nn1-c1cc(C)nc(C)c1 [E200, 3-[(2,2-difluoro-1,3-benzodioxol-5-yl)amino]-1-(2,6-dimethyl-4-pyridinyl)-N-ethyl-1H-1,2,4-triazole-5-acetamide]
- EC50 [1]: 407 nM
- Pam type [1]: 2
- melting point: 280.9 °C

Compound: Cc1ccc(-n2nc(Nc3cccc(OC(F)(F)F)c3)nc2CCC(=O)N(C)C)cn1 [E75]
- EC50 [1]: 186 nM
- Pam type [1]: 4
- melting point: 174.3 °C

Compound: CNc1ncccc1-n1nc(Nc2cccc(OC(F)(F)F)c2)nc1CCC(=O)N(C)C [E6, N,N-Dimethyl-1-[2-(methylamino)-3-pyridinyl]-3-[[3-(trifluoromethoxy)phenyl]amino]-1H-1,2,4-triazole-5-propanamide]
- EC50 [1]: 851 nM
- melting point: 212.8 °C

Compound: CC[C@H](O)Cc1nc(Nc2ccc(F)c(F)c2)nn1-c1ccc(F)cc1 [E28]
- EC50 [1]: 1910 nM
- Pam type [1]: 1
- melting point: 157.3 °C

Compound: Cc1cc(-n2nc(Nc3ccc(F)c(C(F)(F)F)c3)nc2CCCO)ccn1 [E7, 3-[[4-Fluoro-3-(trifluoromethyl)phenyl]amino]-1-(2-methyl-4-pyridinyl)-1H-1,2,4-triazole-5-propanol]
- EC50 [1]: 1000 nM
- Pam type [1]: 2
- melting point: 197.6 °C

Compound: C[C@H](O)Cc1nc(Nc2ccc(F)c(F)c2)nn1-c1cccc(F)c1 [E17]
- EC50 [1]: 3550 nM
- melting point: 177.1 °C

Compound: CC[C@@H](O)Cc1nc(Nc2cc(OC)cc(C(F)(F)F)c2)nn1-c1ccc(C)nc1 [E195]
- EC50 [1]: 3630 nM
- melting point: 151.9 °C

Compound: CCNC(=O)C(C)c1nc(Nc2ccc3c(c2)OC(F)(F)O3)nn1-c1cc(C)nc(C)c1 (centres unmarked) [E275]
- EC50 [1]: 1050 nM
- Pam type [1]: 2
- melting point: 244 °C

Compound: COCCc1nc(Nc2ccc(F)c(C(F)(F)F)c2)nn1-c1ccnc(C)c1 [E13]
- EC50 [1]: 240 nM
- Pam type [1]: 0
- melting point: 170.4 °C

Compound: CCc1cc(-n2nc(Nc3ccc(F)c(F)c3)nc2C[C@H](C)O)ccn1 [E131]
- EC50 [1]: 1380 nM
- Pam type [1]: 2
- melting point: 168 °C

Compound: Cc1cc(-n2nc(Nc3cccc(OC(F)(F)F)c3)nc2CCC(=O)N(C)C)ccn1 [E73]
- EC50 [1]: 135 nM
- Pam type [1]: 4
- melting point: 215.4 °C

Compound: CN(C)C(=O)CCc1nc(Nc2ccc(F)c(F)c2)nn1-c1cccc(Cl)c1 [E58]
- EC50 [1]: 339 nM
- melting point: 165.4 °C
